Data: ChEMBL document CHEMBL1201862, “PubChem BioAssay data set” (2004)
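Cells were grown in 96-well plates and exposed to each compound for 48 hours at five concentrations; endpoints were interpolated linearly between bracketing concentrations, or set to the highest concentration if not reached. Abbreviation: GI50, concentration required for 50% inhibition of growth.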 Calls of active or inactive are those of the source. Cut-off read from the data, not from the text of the source: active = GI50 up to about 1.1 µM and inactive = higher.

Legend:
Test in all cases: NCI anticancer screen, dose series, 48 h
DMS-273 = tested on: DMS-273
MCF7 = tested on: MCF7
DMS-114 = tested on: DMS-114
HL-60 = tested on: HL-60
SW-620 = tested on: SW-620
A549 = tested on: A549
NCI-H23 = tested on: NCI-H23
HOP-92 = tested on: HOP-92
NCI-H522 = tested on: NCI-H522
UACC-257 = tested on: UACC-257
SNB-78 = tested on: SNB-78
NCI-H460 = tested on: NCI-H460
M19-MEL = tested on: M19-MEL
DLD-1 = tested on: DLD-1
SR = tested on: SR
DU-145 = tested on: DU-145
BT-549 = tested on: BT-549
MDA-MB-231 = tested on: MDA-MB-231
T47D = tested on: T47D
PC-3 = tested on: PC-3

Structure (SMILES)	GI50 (DMS-273)	GI50 (MCF7)	GI50 (DMS-114)	GI50 (HL-60)	GI50 (SW-620)	GI50 (A549)	GI50 (NCI-H23)	GI50 (HOP-92)	GI50 (NCI-H522)	GI50 (UACC-257)	GI50 (SNB-78)	GI50 (NCI-H460)	GI50 (M19-MEL)	GI50 (DLD-1)	GI50 (SR)	GI50 (DU-145)	GI50 (BT-549)	GI50 (MDA-MB-231)	GI50 (T47D)	GI50 (PC-3)
CCCCCCCCCCCCCCCCNCC(O)CN (configuration not stated)	3.96 µM (inactive)	2.36 µM (inactive)	5.69 µM (inactive)	1.85 µM (inactive)	1.79 µM (inactive)	3.44 µM (inactive)	6.71 µM (inactive)	2.65 µM (inactive)	14.5 µM (inactive)	9.89 µM (inactive)	2.48 µM (inactive)	1.84 µM (inactive)	2.4 µM (inactive)	1.87 µM (inactive)						
OC1CCSc2ccccc21 (configuration not stated)	> 100 µM (inactive)		> 100 µM (inactive)		> 100 µM (inactive)	> 100 µM (inactive)	> 100 µM (inactive)		> 100 µM (inactive)			> 100 µM (inactive)	> 100 µM (inactive)	> 100 µM (inactive)	> 100 µM (inactive)					
Cc1cccc(C(O)c2ccccn2)c1O (configuration not stated)		> 100 µM (inactive)		> 100 µM (inactive)	> 100 µM (inactive)	> 100 µM (inactive)	> 100 µM (inactive)		> 100 µM (inactive)	> 100 µM (inactive)		> 100 µM (inactive)			> 100 µM (inactive)	> 100 µM (inactive)	> 100 µM (inactive)	> 100 µM (inactive)	15.7 µM (inactive)	> 100 µM (inactive)
Cc1cc(O)c(C(C)C)cc1SC#N		14.9 µM (inactive)		35.1 µM (inactive)	17.3 µM (inactive)		17.2 µM (inactive)	10.7 µM (inactive)	5.46 µM (inactive)	16.6 µM (inactive)		16.4 µM (inactive)				15.5 µM (inactive)	19.6 µM (inactive)	18.5 µM (inactive)	17.8 µM (inactive)	17.1 µM (inactive)
CN1C[C@H]2[C@@H](C1=O)[C@H](c1ccc([N+](=O)[O-])cc1)ON2C		> 100 µM (inactive)		> 100 µM (inactive)	> 100 µM (inactive)	> 100 µM (inactive)	> 100 µM (inactive)	> 100 µM (inactive)	> 100 µM (inactive)	> 100 µM (inactive)		> 100 µM (inactive)			> 100 µM (inactive)	> 100 µM (inactive)		> 100 µM (inactive)	> 100 µM (inactive)	> 100 µM (inactive)
C=CC1OC(CCCOC(=O)C(C)(C)C)O[C@@H]1CC (some centres not stated)		> 100 µM (inactive)		7.38 µM (inactive)	> 100 µM (inactive)	> 100 µM (inactive)	> 100 µM (inactive)	> 100 µM (inactive)	> 100 µM (inactive)	> 100 µM (inactive)		37.2 µM (inactive)			> 100 µM (inactive)	> 100 µM (inactive)		> 100 µM (inactive)	> 100 µM (inactive)	> 100 µM (inactive)
CCN1c2ccccc2NC(=S)c2c(-c3ccccc3)n[nH]c21		22.4 µM (inactive)		13.6 µM (inactive)	27 µM (inactive)	24.8 µM (inactive)	26.5 µM (inactive)	43.8 µM (inactive)	21 µM (inactive)	48.2 µM (inactive)		28.6 µM (inactive)			24.7 µM (inactive)	39.9 µM (inactive)	45.5 µM (inactive)	19.3 µM (inactive)	17.9 µM (inactive)	25.6 µM (inactive)
Cc1ccc(C)c(NC(=O)C(=O)C(C(=O)c2ccc3ccccc3c2)C2OC(=O)c3ccccc32)c1 (configuration not stated)	3.87 µM (inactive)		7.21 µM (inactive)	17.1 µM (inactive)	11.2 µM (inactive)	18.2 µM (inactive)	15.6 µM (inactive)	26.1 µM (inactive)	10 µM (inactive)	15.5 µM (inactive)	17.9 µM (inactive)	11.6 µM (inactive)	12.7 µM (inactive)	23 µM (inactive)	4.45 µM (inactive)					
CC(=O)OC[C@H]1[C@@H]2C(CC[C@]13CO3)OC(=O)CC(C)[C@]2(C)CCc1ccoc1 (some centres not stated)		> 100 µM (inactive)		> 100 µM (inactive)	> 100 µM (inactive)	> 100 µM (inactive)	> 100 µM (inactive)	> 100 µM (inactive)	> 100 µM (inactive)	> 100 µM (inactive)		> 100 µM (inactive)			> 100 µM (inactive)	> 100 µM (inactive)	> 100 µM (inactive)	> 100 µM (inactive)	> 100 µM (inactive)	> 100 µM (inactive)
O=S(=O)(O)c1ccc(/N=N\c2ccc(/N=N\c3ccc(/C=C/c4ccc(/N=[N+](/[O-])c5ccc(/C=C/c6ccc(/N=N/c7ccc(/N=N\c8ccc(S(=O)(=O)O)cc8)cc7)cc6S(=O)(=O)O)c(S(=O)(=O)O)c5)cc4S(=O)(=O)O)c(S(=O)(=O)O)c3)cc2)cc1	> 100 µM (inactive)	> 100 µM (inactive)	> 100 µM (inactive)	> 100 µM (inactive)	> 100 µM (inactive)	> 100 µM (inactive)	> 100 µM (inactive)	> 100 µM (inactive)	86.3 µM (inactive)	> 100 µM (inactive)		> 100 µM (inactive)	> 100 µM (inactive)	> 100 µM (inactive)						
Cc1ccc(C2=C(C#N)C(N)OC3=C2COc2ccccc23)cc1 (configuration not stated)		> 100 µM (inactive)		> 100 µM (inactive)	> 100 µM (inactive)	31.4 µM (inactive)	43.5 µM (inactive)	31.8 µM (inactive)		> 100 µM (inactive)		43.5 µM (inactive)			32.6 µM (inactive)	17.6 µM (inactive)	> 100 µM (inactive)	23.7 µM (inactive)		18.9 µM (inactive)
OC(c1cccnc1Cl)c1nc2ccccc2c2ccnc(Cl)c12 (configuration not stated)		3.04 µM (inactive)		2.77 µM (inactive)	3.06 µM (inactive)	7.76 µM (inactive)	20.5 µM (inactive)	18.7 µM (inactive)	1.05 µM (active)	> 100 µM (inactive)		4.4 µM (inactive)			0.396 µM (active)	23 µM (inactive)	5.79 µM (inactive)	7.82 µM (inactive)	21.4 µM (inactive)	2.11 µM (inactive)
COc1cc(C2S/C(=C/c3ccccc3)C(=O)N2c2cccc(NC(C)=O)c2)cc(OC)c1OC (configuration not stated)		26.1 µM (inactive)				39.2 µM (inactive)	38 µM (inactive)	16.4 µM (inactive)	13.5 µM (inactive)	66.2 µM (inactive)					37.9 µM (inactive)		24.7 µM (inactive)	13.9 µM (inactive)	15.4 µM (inactive)	14.1 µM (inactive)
O=C(O)C1=C(CO)Oc2cc3c(cc2C1c1ccc2c(c1)OCO2)OCO3 (configuration not stated)	> 100 µM (inactive)		> 100 µM (inactive)	> 100 µM (inactive)	> 100 µM (inactive)	> 100 µM (inactive)	> 100 µM (inactive)	> 100 µM (inactive)		> 100 µM (inactive)	> 100 µM (inactive)	> 100 µM (inactive)	> 100 µM (inactive)	> 100 µM (inactive)						
O=C(Nc1ccc(Cl)cc1)C(=O)C(C(=O)c1ccccc1-c1ccccc1)C1OC(=O)c2ccccc21 (configuration not stated)	29 µM (inactive)		16.7 µM (inactive)	18.5 µM (inactive)	22.4 µM (inactive)	23.6 µM (inactive)	23.1 µM (inactive)	27 µM (inactive)	14.2 µM (inactive)	21.9 µM (inactive)	> 100 µM (inactive)	19.4 µM (inactive)	19.4 µM (inactive)	29 µM (inactive)	17.6 µM (inactive)					
O=C(N/C=C1\C(=O)Oc2ccccc2C1=O)NC1CCCCC1	> 100 µM (inactive)		45.3 µM (inactive)	40 µM (inactive)	98.4 µM (inactive)	> 100 µM (inactive)	69 µM (inactive)	18.5 µM (inactive)		69.7 µM (inactive)	22.9 µM (inactive)	> 100 µM (inactive)	73.5 µM (inactive)		> 100 µM (inactive)					
O=C(NC(Cc1ccc(I)cc1)C(=O)O)c1ccc(Cl)cc1 (configuration not stated)	> 100 µM (inactive)	37.8 µM (inactive)		> 100 µM (inactive)	> 100 µM (inactive)	> 100 µM (inactive)	> 100 µM (inactive)	67.8 µM (inactive)	74.3 µM (inactive)	> 100 µM (inactive)	> 100 µM (inactive)	> 100 µM (inactive)	> 100 µM (inactive)	> 100 µM (inactive)						
C=C1C(=O)OC2/C=C(\C(=O)O)CC/C=C(\C)CC(OC(=O)/C=C(\C)CC)C12 (configuration not stated)	19 µM (inactive)		15.4 µM (inactive)	72.6 µM (inactive)	16.6 µM (inactive)	16 µM (inactive)	16.4 µM (inactive)	20.9 µM (inactive)	17.8 µM (inactive)	18.2 µM (inactive)	23 µM (inactive)	16.1 µM (inactive)	15.6 µM (inactive)	16.7 µM (inactive)	> 100 µM (inactive)					
COc1cc(O)c2c(c1)C(=O)c1cc3c(c(O)c1C2=O)C(OC1OC(C)C(O)C(O)C1OC)C(OC)C(C)(O)C3=O (configuration not stated)	0.644 µM (active)	2.54 µM (inactive)	1.61 µM (inactive)		1.08 µM (active)	3.71 µM (inactive)	2.06 µM (inactive)	0.436 µM (active)	1.93 µM (inactive)	0.723 µM (active)	3.76 µM (inactive)	1.53 µM (inactive)	0.532 µM (active)	2.22 µM (inactive)						
CCOP(=O)(COCCn1nc(Br)c(=O)[nH]c1=O)OCC		> 100 µM (inactive)		> 100 µM (inactive)	> 100 µM (inactive)	> 100 µM (inactive)	> 100 µM (inactive)	> 100 µM (inactive)	> 100 µM (inactive)	> 100 µM (inactive)		> 100 µM (inactive)			> 100 µM (inactive)	> 100 µM (inactive)		> 100 µM (inactive)	> 100 µM (inactive)	> 100 µM (inactive)
